# Experimental data as given in patent publication US20260150874A1, “HUMAN MILK OLIGOSACCHARIDES” (SOCIETE DES PRODUITS NESTLE S.A., priority 2021, published 2026).
# “Also recorded” adds a separate entry of the source.
# How the values were obtained:
# [1] = tested on: auditory network; assay: Association between human milk HMOs and brain functional network connection strength (rsfMRI), auditory network; assay type: in vivo, typically developing infants (human); conditions: A-tetra+ group; infants 0-20 months; human milk HMO level; quantile regression of 25th, 50th, 75th percentiles of CS; across all quantiles
# Method: (§1) In this study, we leveraged the UNC/UMN Baby Connectome Project (BCP) published in Neuroimage 2019: Vol 185: 891-905, aiming to longitudinally characterize early brain development, where typically developing children from 0-5 years of age were enrolled, longitudinal resting functional MR imaging (rsfMRI) was administered at each visit. The BCP study was further supplemented by collecting breast milk samples from the mothers whose children were breast-fed at the time of study visit, to allow the determination of potential associations between HMOs and early brain functional development using rsfMRI.
# (§2) 153 rsfMRI scans from 91 typically developing infants (0-20 months old) were obtained. Human milk (HM) samples were obtained from the mothers of the participants at each imaging visit and analyzed for HMOs. Brain functional network connection strengths (CS), which have been implicated to reflect brain functional maturation during early brain development, were obtained for the visual, default mode (DMN), sensorimotor, and auditory networks. Age effects for CS and HMOs were removed. Multivariate quantile regression of 25th, 50th, and 75th percentiles of CS with mixed effect was used to examine associations between HMOs and CS for all infants, and stratified by infants who received HM with detectable and undetectable A-tetra (A-tetra+and A-tetra−). […]
# [2] = tested on: visual network; assay: Association between human milk HMOs and brain functional network connection strength (rsfMRI), visual network; assay type: in vivo, typically developing infants (human); conditions: A-tetra+ group; infants 0-20 months; human milk HMO level; quantile regression of 25th, 50th, 75th percentiles of CS; across all quantiles
# Method: as §1, §2
structure (smiles),measurement,setting,value
"CC(=O)N[C@H]1[C@H]([C@H](O)[C@H](O)CO)O[C@@](OC[C@H]2O[C@@H](O[C@H]3[C@H](O)[C@@H](O)[C@H](O)O[C@@H]3CO)[C@H](O)[C@@H](O)[C@H]2O)(C(=O)O)C[C@@H]1O [6′-SL, 6′-sialyllactose]","association between 6′-SL and auditory function (auditory resting functional networks, connection strength)",[1],positive associations; also recorded: significant positive association
same,"association between 6′-SL and visual function (vision resting functional networks, connection strength)",[2],positive associations; also recorded: significant positive association
